# Measurements published in US20060165821A1, “Composition comprising scutellaria baicalensis and their uses thereof” (priority 2002, published 2006).
# Legend:
# [1] = following an oral dose; cited from earlier work
# SCC-25 cells = assay: Previously determined IC50 of celecoxib; format: cell-based; conditions: Homo sapiens, quantity inhibited not stated
# Description: Benzo[a]pyrene (BaP), one of the compounds released from smoking, is a prototypical carcinogen. It is a polycyclic aromatic hydrocarbon (PAH) compound and is found in high quantity (20-40 ng) in each cigarette. BaP is metabolized and activated to become the ultimate carcinogenic metabolite [(+)-anti-7b,8a-dihydroxy-9a,10a-epoxy-7,8,9,10-tetrahydorbenzo[a]pyrene], also known as BPDE. […] We examined the counter-stimulatory effect of Scutellaria baicalensis on BaP-induced COX-2 activity. After the treating SCC-25 cells with BaP for 6 hours, the supernatants were removed and the cells were washed with PBS. […] This situation resembles the chemoprevention in the former smokers.
# [2] = Paw edema induced by Freund's complete adjuvant in rats; format: in vivo, Wistar rats; conditions: X ± SD, n = 6, oral gavage once per day
# Description: The anti-arthritic activity of Scutellaria baicalensis formula was confirmed in animal study. Eight week-old male Wistar rats were received intradermal injections of 0.1 ml Freund's complete adjuvant (FCA, 7.5 mg/ml) to the paw of the right hindfood. At 14 days, paw edema was induced and rats were randomized into three groups (n=6) including control group, Scutellaria baicalensis formula group (30 mg/kg of Scutellaria baicalensis, 10 mg/kg of Glucosamine and 8 mg/kg of Chondroitin) and indomethacin group (12.5 mg/kg) which serves as a positive control. The treatment groups were given Scutellaria baicalensis formula or indomethacin by oral gavage once per day for a duration of 10 days. The diameters of paw were measured at 16, 20 and 24 days.
# IL-6 = IL-6 in serum of rats with adjuvant arthritis (ELISA); format: in vivo; conditions: end of experiment, X ± SD, n = 6
# Excerpt: (§1) Osteoarthritis is characterized by articular cartilage degradation and hypertrophic joint changes. Pro-inflammatory cytokines (IL-1, IL-6, TNF-α) are considered to play important roles in the initiation and development of osteoarthritis (Inoue et al. British Journal of Pharmacology 136:287-295 (2002)). Prostaglandin (PG) E2 has catabolic effects on the articular cartilage in OA (Futani et al J Immunother 2002 1;25(0):S61-S64). Therefore, we measured IL-6 and PGE2 in rats' blood with adjuvant-induced arthritis treated with Scutellaria baicalensis formula using ELISA assay. At the end of the experiment in Example 4.1, IL-6 in serum and PGE2 in articular fluid were assessed.
# PGE2 = PGE2 in articular fluid of rats with adjuvant arthritis (ELISA); format: in vivo; conditions: end of experiment, X ± SD, n = 6
# Excerpt: as §1
# [3] = mice or rats; 500 mg/kg oral, 3000 mg/kg IM, 1500 mk/kg IV; cited from earlier work
compound,measurement,setting,value
Chondroitin sulfate,tolerability / signs or symptoms of toxicity,[1],well tolerated
Cc1ccc(-c2cc(C(F)(F)F)nn2-c2ccc(S(N)(=O)=O)cc2)cc1 [celecoxib],IC50,SCC-25 cells,25 µM
COc1ccc2c(c1)c(CC(=O)O)c(C)n2C(=O)c1ccc(Cl)cc1 [Indomethacin],changes of paw edema,[2]; 16 d,0.929 ± 0.214
same,changes of paw edema,[2]; 20 d,0.771 ± 0.160
same,changes of paw edema,[2]; 24 d,0.400 ± 0.245
same,IL-6,IL-6,6.0 ± 3.1 pg/mL
same,PGE2,PGE2,6.00 ± 3.1 pg/mL
N[C@H]1C(O)O[C@H](CO)[C@@H](O)[C@@H]1O.O=S(=O)(O)O (some centres unmarked) [glucosamine sulfate],mortality,[3],No mortality
